# Data: article PMC4747383, “Design of a peptidic inhibitor that targets the dimer interface of a prototypic galectin” (Oncotarget, 2015)
# “Also recorded” adds a separate entry of the source. No end group written: not given here.
# How the values were obtained:
# [1] = system: recombinant hGal-7; experiment: Disruption of hGal-7 homodimers, native gel electrophoresis/Western blot; type: biochemical, human; conditions: for disruption of hGal-7 homodimers (in words): 0.5 μM recombinant hGal-7, 20 mM potassium phosphate pH 7.1, 1 h at 4°C
# Excerpt: To measure the ability of the peptides to disrupt the formation of hGal-7 dimers, we used mild denaturing native gel electrophoresis, a commonly used approach to visualize monomer-dimer equilibrium (Fig. 1A and Supplementary Fig. S1). […] This specificity at disrupting hGal-7 dimer formation is provided by distinct three-dimensional arrangements between otherwise very similar galectin homologues. Indeed, while all monomeric galectins reveal identical topologies, dimer formation in hGal-7 proceeds through a “back-to-back” topology of the monomers while other galectins, including hGal-1 and hGal-2, adopt a “side-by-side” structural arrangement (Fig. 1B). This structural organization provides additional means to specifically target and disrupt galectin function.
# Incubation of the recombinant B. hGal-1 and C. hGal-2 with hGal-7(129–135) was performed in the same potassium phosphate buffer. The effect of hGal-7(129–135) on the monomeric and dimeric forms of hGal-7/hGal-1/hGal-2 was assessed by Western blotting in native conditions with respective antibodies. The hGal-1/hGal-2 films were overexposed. PACAP28–38 was the control peptide used in order to ensure the specificity of hGal-7(129–135). Recombinant hGal-7 (0.5 μM) was also incubated with increasing concentrations of hGal-7(129–135) in 0.1 mM D. lactose or E. LacNac solutions. Results are representative of three independent experiments.
# Human Gal-7 cDNA was cloned into pET-22b(+) using NdeI and HindIII restriction enzymes. Human pET-Gal-1 vector was generously donated by Dr. S. Sato (McGill University, QC, Canada). The proteins were produced in E. coli BL21 (DE3) cells at 37°C. Isopropyl β-D-1-thiogalactopyranoside (IPTG) (1 mM) was added to the bacterial culture at OD600nm = 0.6–0.7 and then incubated for 4 h at 37°C to allow protein production. Bacterial pellets were resuspended in lysis buffer (0.7 mg/mL lysozyme, 10 mM Tris pH 8, 100 mM NaCl, 1 mM EDTA, 1 mM DTT and a protease inhibitor cocktail) and then incubated for 1 h at 37°C prior to centrifugation for 30 min at 15,000 × g (4°C). The supernatant was then filtered with 500 mL bottle top filter ([…]) (Corning, New York, NY, USA) and then ran through a lactose-agarose column (Sigma, St. Louis, MO, USA). The protein was eluted in 1 mL fractions with 150 mM lactose solution. Purified fractions were analyzed by SDS-PAGE. The hGal-7 was then concentrated and purified using Centrifugal filter units (Amicon Ultra-15, 10K) (EMD, Millipore, Etobicoke, ON) in 20 mM potassium phosphate at pH 7.1. All subsequent experiments with the recombinant proteins were performed in the same buffer solution unless mentioned otherwise. Brilliant Coomassie blue was purchased from BioRad (Bio-Rad Laboratories, Mississauga, ON, Canada). The recombinant protein hGal-2 was purchased from MyBiosource (San Diego, CA, USA). […]
# gaI-7 (0.5 μM) was incubated with increasing concentrations of biotin-labeled hGaI-7129–135 in 20 mM potassium phosphate buffer (pH 7.1) for 60 min at 4°C beforeWestern blot analysis in low SDS-PAGE using an anti-gaI-7 antibody. B. Similar experiments were carried out using recombinant human B. gaI-1 and C. gaI-2. Results are representative of two independent experiments.
# (also on this page, place not known: www.impactjournals.com/oncotarget/ Oncotarget, Materials 2015 Supplementary hGaI-7 129–135.)
# [2] = system: recombinant hGal-7; experiment: Solid phase fluorescent binding assay on hGal-7; set-up: species or system human; conditions: hGal-7 10 μg/ml coated; unlabeled peptide (1 mM) 60 min, then biotin-labeled peptide 120 min, room temperature; Streptavidin R-phycoerythrin fluorescence; three independent experiments
# Excerpt: Results are representative of three independent experiments. Error bars represent standard deviation.
# [3] = system: PBMCs; experiment: hGal-7-induced apoptosis of PBMCs, PARP-1 cleavage (Western blot); type: cell-based, human; conditions: increasing hGal-7 pre-incubated with peptide 200 μM, 4 h at 37°C, serum-free, two independent experiments
# Experimental: The Jurkat cell line was maintained in RPMI 1640 medium. The culture medium was supplemented with 10% [v/v] fetal bovine serum, 2 mmol/L L-glutamine, 10 mM HEPES buffer, and 1 mM sodium pyruvate. All cell culture products were purchased from Life Technologies (Burlington, ON, Canada). Isolation of peripheral mononuclear cell (PBMCs) was performed as previously described.
# For the apoptosis tests, whole-cell extracts were homogenized and resuspended in RIPA buffer (Thermo Fisher Scientific, Rockford, IL, USA) containing protease inhibitors (Roche, Laval, QC, Canada). Equal amounts of whole-cell extracts (25 μg) were separated on SDS-PAGE and transferred onto nitrocellulose membranes (Bio-Rad Laboratories). The membranes were first blocked with 5% milk [w/v] in TBS/0.5% Tween 20 [v/v] for 1 h at room temperature and subsequently blotted overnight in a solution of TBS containing 3% BSA [w/v] and 0.5% Tween 20 [v/v]. The following antibodies were used: a rabbit anti-poly-(ADP-ribose) polymerase (PARP)-1 (p25) polyclonal antibody (1:5000; Epitomics, Burlingame, CA, USA) and a mouse anti-β-actin (1:10000; Sigma-Aldrich, St. Louis, MO, USA). […]
# concentrations of recombinant human gaI-7 were pre-incubated with the hGaI-7129–135 (200 μM) prior to its addition to A. Jurkat T cells or B. PBMCs. Apoptosis wa, measured after 4 h at 37°C in serum·free conditions. […]
# [4] = 0.5 μM recombinant hGal-7, 20 mM potassium phosphate pH 7.1, pre-incubated 1 h at 4°C, native PAGE, Western blot, representative of three independent experiments
substance,measurement,setting,value
"H-LDSVRIP-NH2 [hGal-7(129–135), peptide corresponding to hGal-7 segment between residues 129–135]",disruption of hGal-7 homodimers in presence of LacNac,"[1]; 0.5 μM hGal-7, 0.1 mM LacNac, representative of three independent experiments",not inhibited by the presence of lactose or LacNac
same,disruption of hGal-7 homodimers in presence of lactose,"[1]; 0.5 μM hGal-7, 0.1 mM lactose, representative of three independent experiments",not inhibited by the presence of lactose
same,disruption of hGal-7 homodimers (in words),"[1]; native PAGE, Western blot",Disruption of the hGal-7 dimer; also recorded: effective at relatively high concentrations
same,lowest concentration giving a consistent decrease of hGal-7 homodimers,[1]; [4],10 µM
same,saturation dose for decrease of hGal-7 homodimers,[1]; [4],100 µM
same,binding to immobilized hGal-7,[2],direct interaction; also recorded: bind hGal-7 in a concentration-dependent and specific manner
same,inhibition of hGal-7-induced apoptosis in PBMCs (PARP-1 cleavage),[3],also observed using human peripheral blood monocytes
same,inhibition of hGal-7-induced apoptosis in PBMCs (PARP-1 cleavage),[3]; listed as hGaI-7129–135,decreases gaI-7-induced apoptosis
"PACAP(28–38): an inactive fragment of the human Pituitary Adenylate Cyclase-Activating Polypeptide (PACAP) (GKRYKQRVKNK-NH2; ends and bridges not checked; UniProt P18509 159-169, looked up, fragment)",disruption of hGal-7 homodimers (in words),"[1]; native PAGE, Western blot",No such effect was observed
